For series [1], the target named is T1, rat histamine H3 receptor (Rattus norvegicus, UniProt Q9QYN8).
T1 construct: encoding the entire 445-amino-acid rat histamine H3 receptor; expressed in transfected cells; membrane preparation
Put plainly: Rat H3 radioligand binding ([3H]-N-alpha-methylhistamine, SPA). The conditions noted are these: membranes of CHO-A3 cells expressing rat H3 receptor; [3H]-N-alpha-methylhistamine about 1 nM. An excerpt: Cell line development and membrane preparation. The rat H3 receptor cDNA was PCR amplified from reverse-transcribed RNA pooled from rat thalamus, hypothalamus, striatum and prefrontal cortex with a sequence corresponding to by #338-1672 of Genbank file #NM_053506, encoding the entire 445-amino-acid rat histamine H3 receptor. This was engineered into the pIRES-neo3 mammalian expression vector, which was stably transfected into the CHO-A3 cell line (Euroscreen, Belgium), followed by clonal selection by limiting dilution. Cells were harvested and cell pellets were frozen (−80° C.). Cell pellets were resuspended in 5 mM Tris-HCl, pH 7.5 with […] and a cocktail of protease inhibitors (Complete Protease Inhibitior Tablets, Roche Diagnostics). Cells were disrupted using a polytron cell homogenizer and the suspension was centrifuged at 1000×g for 10 minutes at 4° C. The pellet was discarded and the supernatant centrifuged at 40,000×g for 30 min at 4° C. This membrane pellet was washed in membrane buffer containing 50 mM Tris-HCl, pH 7.5 with 0.6 mM EDTA, 5 mM MgCl2 and protease inhibitors, recentrifuged as above and the final pellet resuspended in membrane buffer plus 250 mM sucrose and frozen at −80° C.
(§1) Radioligand Binding. Membranes were resuspended in 50 mM Tris HCl (pH 7.4), 5 mM MgCl2, 0.1% BSA. The membrane suspensions (10 μg protein per well) were incubated in a 96 well microtiter plate with [^3H]-N-alpha-methylhistamine (approximately 1 nM final concentration), test compounds at various concentrations (0.01 nM-30 μM) and scintillation proximity beads (Perkin Elmer, FlashBlueGPCR Scintillating Beads) in a final volume of 80 μl for 4 hours at room temperature, protected from light. Non-specific binding was determined in the presence of 10 μM clobenpropit. Radioligand bound to receptor, and therefore in proximity to the scintillation beads, was measured using a MicroBeta scintillation counter.

For another series, the target named is T2, human H3 receptor (Homo sapiens, UniProt Q9Y5N1).
T2 construct: expressed in transfected cells; membrane preparation
T2 sequence (Q9Y5N1 whole entry): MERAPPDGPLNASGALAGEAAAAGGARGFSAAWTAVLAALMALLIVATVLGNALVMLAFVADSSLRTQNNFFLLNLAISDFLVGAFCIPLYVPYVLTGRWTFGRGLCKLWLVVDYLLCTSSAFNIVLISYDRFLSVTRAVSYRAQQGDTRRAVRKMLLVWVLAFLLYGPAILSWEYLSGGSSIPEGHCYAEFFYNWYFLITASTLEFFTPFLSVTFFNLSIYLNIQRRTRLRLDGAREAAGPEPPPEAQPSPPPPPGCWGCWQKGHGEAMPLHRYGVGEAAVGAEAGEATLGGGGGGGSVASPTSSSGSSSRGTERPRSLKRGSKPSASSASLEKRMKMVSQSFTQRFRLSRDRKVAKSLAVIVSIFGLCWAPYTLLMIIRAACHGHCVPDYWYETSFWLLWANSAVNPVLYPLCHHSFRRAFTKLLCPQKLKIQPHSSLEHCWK
Put plainly: Human H3 radioligand binding ([3H]-N-alpha-methylhistamine, SPA). The conditions noted are these: membranes of CHO cells expressing human H3 receptor; [3H]-N-alpha-methylhistamine about 1 nM. How it is done:
Methods: CHO cells stably expressing the human H3 receptor (GenBank: NM_007232) were harvested and cell pellets were frozen (−80° C.). Cell pellets were resuspended in 5 mM Tris-HCl, pH 7.5 with […] and a cocktail of protease inhibitors (Complete Protease Inhibitior Tablets, Roche Diagnostics). Cells were disrupted using a polytron cell homogenizer and the suspension was centrifuged at 1000×g for 10 minutes at 4° C. The pellet was discarded and the supernatant centrifuged at 40,000×g for 30 min at 4° C. This membrane pellet was washed in membrane buffer containing 50 mM Tris-HCl, pH 7.5 with 0.6 mM EDTA, 5 mM MgCl2 and protease inhibitors, recentrifuged as above and the final pellet resuspended in membrane buffer plus 250 mM sucrose and frozen at −80° C.
as §1

pKi: −log10 of the molar value.

T1 sequence (Q9QYN8 whole entry): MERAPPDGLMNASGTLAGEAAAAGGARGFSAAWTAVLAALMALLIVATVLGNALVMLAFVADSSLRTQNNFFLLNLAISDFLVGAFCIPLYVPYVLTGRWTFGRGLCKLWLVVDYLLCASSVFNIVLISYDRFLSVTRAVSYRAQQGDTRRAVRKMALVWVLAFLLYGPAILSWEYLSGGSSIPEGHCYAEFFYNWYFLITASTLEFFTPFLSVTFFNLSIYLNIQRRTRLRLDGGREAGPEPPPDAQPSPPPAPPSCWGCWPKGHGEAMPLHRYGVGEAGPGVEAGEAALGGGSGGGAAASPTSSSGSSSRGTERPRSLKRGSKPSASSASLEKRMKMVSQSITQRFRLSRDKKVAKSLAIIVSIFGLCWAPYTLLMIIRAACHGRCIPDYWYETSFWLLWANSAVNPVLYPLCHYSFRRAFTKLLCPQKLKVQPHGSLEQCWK

For `Cc1cc(=O)[nH]nc1-c1ccc2c(c1)CC1(CCN(C3CCC3)CC1)O2` [Example 4, 6-(Cyclobutyl-spiro[benzofuran-2(3H),4′-piperidine]-5-yl)-5-methyl-2H-pyridazin-3-one], the melting point (as a rule, the temperature, or range, at which the solid turns liquid) lay in the range of 243 to 245 °C. The pKi (as a rule, the negative decadic logarithm of the Ki, by convention in mol/L) in series [1] was greater than 6.70. In addition, the negative-log Ki (pKi) at human H3 receptor was greater than 6.70.
Compound `O=c1ccc(-c2ccc3c(c2)CC2(CCN(C4CCC4)CC2)O3)n[nH]1` [Example 16, 1′-Cyclobutyl-5-(6-oxo-1,6-dihydropyridazin-3-yl) spiro[benzofuran-2(3H)-4′-piperidine]] displayed a melting point of 227 to 228 °C. The same compound showed a pKi in series [1] greater than 6.70. The pKi at human H3 receptor is greater than 6.70.
In turn, `O=c1ccc(-c2ccc3c(c2)COC2(CCN(C4CCC4)CC2)O3)n[nH]1` [Example 28] returned a melting point of 273 to 275 °C. In series [1], the negative-log Ki (pKi) was greater than 6.70. Further, the pKi at human H3 receptor is greater than 6.70.
The compound `CC1CC(=O)NN=C1c1ccc2c(c1)CC1(CCN(C3CCC3)CC1)O2` (stereo not drawn) [Example 3, 6-(1-Cyclobutyl-spiro[benzofuran-2(3H),4′-piperidine]-5-yl)-5-methyl-4,5-dihydro-2H-pyridazin-3-one] had a melting point of 213 to 215 °C. This compound had a pKi in series [1] of 6.00 to 6.70. This compound also had a pKi at human H3 receptor greater than 6.70.
`O=c1ccc(-c2ccc3c(c2)CCC2(CCN(C4CCC4)CC2)O3)n[nH]1` [Example 21] came in with a melting point of 273 to 275 °C. The pKi in series [1] is greater than 6.70. The compound also gave a pKi on human H3 receptor greater than 6.70.
`Clc1ccc(-c2ccc3c(c2)CC2(CCN(C4CCC4)CC2)O3)nn1` [Example 15, 1′-Cyclobutyl-5-(6-chloropyridazin-3-yl)spiro[benzofuran-2(3H)-4′-piperidine]] registered a melting point of 193 to 194 °C. In series [1], this compound gave a pKi greater than 6.70. Besides, the pKi at human H3 receptor is greater than 6.70.
`O=c1[nH]nc(-c2ccc3c(c2)COC2(CCN(C4CCC4)CC2)O3)c2ccccc12` [Example 32] showed a melting point of 258 to 259 °C. For the same compound, the pKi in series [1] was greater than 6.70. In addition, the pKi at human H3 receptor was greater than 6.70.
`O=C1CCC(c2ccc3c(c2)CC2(CCN(C4CCC4)CC2)O3)=NN1` [Example 1, 6-(1-Cyclobutyl-spiro[benzofuran-2(3H),4′-piperidine]-5-yl)-4,5-dihydro-2H-pyridazin-3-one] displayed a melting point of 207 to 209 °C. The compound also gave a negative-log Ki (pKi) in series [1] greater than 6.70. The compound also had a pKi on human H3 receptor greater than 6.70.
`Cn1nc(-c2ccc3c(c2)CCC2(CCN(C4CCC4)CC2)O3)ccc1=O` [Example 20] showed a melting point of 147 to 149 °C. In series [1], the pKi was greater than 6.70. Moreover, on human H3 receptor, the pKi is greater than 6.70.
As to `O=c1cc(-c2ccc3c(c2)CCC2(CCN(C4CCC4)CC2)O3)cn[nH]1` [Example 19], the melting point fell in the range of 216 to 219 °C. Besides, in series [1], the pKi was greater than 6.70. The same compound had a pKi on human H3 receptor greater than 6.70.
`CC(C)N1CCC2(CCc3cc(C4=NNC(=O)C(C)(C)C4)ccc3O2)CC1` [Example 14] returned a melting point of 210 to 213 °C. This compound showed a pKi in series [1] greater than 6.70. On human H3 receptor, the negative-log Ki (pKi) was greater than 6.70.
On to `Cn1nc(-c2ccc3c(c2)COC2(CCN(C4CCC4)CC2)O3)ccc1=O` [Example 27], for which the melting point lay within 185 to 187 °C. This compound gave a pKi in series [1] greater than 6.70. The compound further gave a pKi on human H3 receptor greater than 6.70.
In turn, `O=c1ccc(Oc2ccc3c(c2)CCC2(CCN(C4CCC4)CC2)O3)n[nH]1` [Example 18] yielded a melting point of 233 to 235 °C. Further, in series [1], the pKi is greater than 6.70. The pKi on human H3 receptor was greater than 6.70.
Turning to `Cc1cc2c(cc1-c1ccc(=O)[nH]n1)COC1(CCN(C3CCC3)CC1)O2` [Example 29], the melting point lay within 230 to 232 °C. The negative logarithm of the Ki (pKi) in series [1] is 6.00 to 6.70. The compound further showed a pKi on human H3 receptor of 6.00 to 6.70.
`CC1CC(=O)NN=C1c1ccc2c(c1)CCC1(CCN(C3CCC3)CC1)O2` (stereo not drawn) [Example 12, 1′-Cyclobutyl-6-(5-methyl-4,5-dihydro-2H-pyridazin-3-one-6-yl)-spiro[3,4-dihydrobenzopyran-2,4′-piperidine]]: the melting point fell in the range of 207 to 209 °C. The compound further had a pKi in series [1] greater than 6.70. For the same compound, at human H3 receptor, the pKi was greater than 6.70.
